Measured values from PubChem BioAssay AID248 (DTP/NCI, 2004).
“And” between values parts separate entries of the source, which are not always exact repeats. Equal values may be shown once. Toxic doses and inconclusive results are not listed.

Test system: L1210 leukemia ip in BDF1 mice, survival T/C
Experiment: NCI In Vivo Anticancer Drug Screen. Data for tumor model L1210 Leukemia (intraperitoneal) in B6D2F1 (BDF1) mice
Conditions: endpoint: mean survival time, higher = longer survival
Procedure, shortened: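 Antitumor effect is assessed in tumor-bearing animals. Survival in the compound arm is compared with a vehicle-dosed control arm and expressed as their quotient.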

[1] = dose: 12.5 mg/kg/injection, schedule: Q04DX003 (ip), vehicle: Klucel (hydroxypropylcellulose) (HPC)
[2] = dose: 25.0 mg/kg/injection, schedule: Q01DX009 (ip), vehicle: Klucel (hydroxypropylcellulose) (HPC)
[3] = dose: 25.0 mg/kg/injection, schedule: Q04DX003 (ip), vehicle: Klucel (hydroxypropylcellulose) (HPC)
[4] = dose: 50.0 mg/kg/injection, schedule: Q01DX009 (ip), vehicle: Klucel (hydroxypropylcellulose) (HPC)
[5] = dose: 50.0 mg/kg/injection, schedule: Q04DX003 (ip), vehicle: saline
[6] = dose: 100.0 mg/kg/injection, schedule: Q01DX009 (ip), vehicle: Klucel (hydroxypropylcellulose) (HPC)
[7] = dose: 100.0 mg/kg/injection, schedule: Q04DX003 (ip), vehicle: saline with Tween-80
[8] = dose: 200.0 mg/kg/injection, schedule: Q04DX003 (ip), vehicle: saline with Tween-80
[9] = dose: 400.0 mg/kg/injection, schedule: Q04DX003 (ip), vehicle: saline with Tween-80
[10] = dose: 50.0 mg/kg/injection, schedule: Q01DX001 (ip), vehicle: carboxymethylcellulose (CMC)
[11] = dose: 100.0 mg/kg/injection, schedule: Q01DX001 (ip), vehicle: carboxymethylcellulose (CMC)
[12] = dose: 200.0 mg/kg/injection, schedule: Q01DX001 (ip), vehicle: carboxymethylcellulose (CMC)
[13] = dose: 400.0 mg/kg/injection, schedule: Q01DX001 (ip), vehicle: carboxymethylcellulose (CMC)
[14] = dose: 50.0 mg/kg/injection, schedule: Q01DX009 (ip), vehicle: saline
[15] = dose: 100.0 mg/kg/injection, schedule: Q04DX003 (ip), vehicle: saline
[16] = dose: 100.0 mg/kg/injection, schedule: Q04DX002 (ip), vehicle: saline with Tween-80
[17] = dose: 200.0 mg/kg/injection, schedule: Q04DX002 (ip), vehicle: saline with Tween-80
[18] = dose: 200.0 mg/kg/injection, schedule: Q01DX009 (ip), vehicle: Klucel (hydroxypropylcellulose) (HPC)
[19] = dose: 400.0 mg/kg/injection, schedule: Q01DX009 (ip), vehicle: Klucel (hydroxypropylcellulose) (HPC)
[20] = dose: 100.0 mg/kg/injection, schedule: Q01DX001 (ip), vehicle: saline
[21] = dose: 200.0 mg/kg/injection, schedule: Q01DX001 (ip), vehicle: saline
[22] = dose: 400.0 mg/kg/injection, schedule: Q01DX001 (ip), vehicle: saline
[23] = dose: 200.0 mg/kg/injection, schedule: Q04DX003 (ip), vehicle: saline
[24] = dose: 400.0 mg/kg/injection, schedule: Q04DX003 (ip), vehicle: saline

SMILES: CCOC(=O)C(C#N)N=O (stereo unspecified)
- T/C (dose: 6.25 mg/kg/injection, schedule: Q04DX003 (ip), vehicle: Klucel (hydroxypropylcellulose) (HPC)): 89 % of control
- T/C [1]: 91 % of control
- T/C [2]: 95 % of control
- T/C [3]: 92 % of control
- T/C [4]: 103 % of control
- T/C [5]: 100 % of control
- T/C [6]: 97 % of control

SMILES: CCCCCCCCCCCCNc1ccccn1
- T/C [7]: 88 % of control
- T/C [8]: 94 % of control
- T/C [9]: 96 % of control

SMILES: CCCCCC(=O)OC1CCCCC1C1CCCCC1 (stereo unspecified)
- T/C [10]: 96 % of control
- T/C [11]: 94 % of control
- T/C [12]: 100 % of control
- T/C [13]: 96 % of control

SMILES: COC(=O)C(C)CN1CCCC1 (stereo unspecified)
- T/C (dose: 12.5 mg/kg/injection, schedule: Q01DX009 (ip), vehicle: saline): 97 % of control
- T/C (dose: 25.0 mg/kg/injection, schedule: Q01DX009 (ip), vehicle: saline): 88 % of control
- T/C (dose: 25.0 mg/kg/injection, schedule: Q04DX003 (ip), vehicle: saline): 98 % of control
- T/C [14]: 100 % of control
- T/C [5]: 107 % of control
- T/C [15]: 104 % of control

SMILES: CCOC(=O)CCC1(C(=O)OC)C(=O)CCCCC/C=C/1C(=O)OC (stereo unspecified)
- T/C [7]: 99 % of control
- T/C [8]: 101 % of control
- T/C [9]: 106 % of control

SMILES: C(=C(CC1CCC1)CC1CCC1)C1CCC1
- T/C [16]: 96 % of control
- T/C [17]: 90 % of control

SMILES: O=C(Sc1ccccc1)c1ccccc1
- T/C [10]: 105 % of control
- T/C [11]: 105 % of control
- T/C [12]: 108 % of control
- T/C [13]: 100 % of control

SMILES: CC(=O)CCC(C(=O)c1ccccc1)c1ccccc1 (stereo unspecified)
- T/C (dose: 222.0 mg/kg/injection, schedule: Q01DX Z (ip), vehicle: methylcellulose (MC)): 101 % of control

SMILES: Clc1ccc(CSc2nc3ccccc3[nH]2)cc1
- T/C [6]: 94 % of control
- T/C [18]: 103 % of control
- T/C [19]: 103 % of control

SMILES: COc1ccc(OC(=O)Nc2ccc(F)cc2)cc1
- T/C [10]: 97 % of control
- T/C (dose: 50.0 mg/kg/injection, schedule: Q01DX009 (ip), vehicle: carboxymethylcellulose (CMC)): 93 % of control and 90 % of control
- T/C (dose: 50.0 mg/kg/injection, schedule: Q04DX002 (ip), vehicle: carboxymethylcellulose (CMC)): 95 % of control and 106 % of control
- T/C (dose: 50.0 mg/kg/injection, schedule: Q04DX003 (ip), vehicle: carboxymethylcellulose (CMC)): 101 % of control
- T/C [11]: 89 % of control
- T/C (dose: 100.0 mg/kg/injection, schedule: Q01DX009 (ip), vehicle: carboxymethylcellulose (CMC)): 93 % of control and 103 % of control
- T/C (dose: 100.0 mg/kg/injection, schedule: Q04DX002 (ip), vehicle: carboxymethylcellulose (CMC)): 101 % of control and 110 % of control
- T/C (dose: 100.0 mg/kg/injection, schedule: Q04DX003 (ip), vehicle: carboxymethylcellulose (CMC)): 101 % of control
- T/C [12]: 89 % of control
- T/C (dose: 200.0 mg/kg/injection, schedule: Q01DX009 (ip), vehicle: carboxymethylcellulose (CMC)): 101 % of control and 104 % of control
- T/C (dose: 200.0 mg/kg/injection, schedule: Q04DX002 (ip), vehicle: carboxymethylcellulose (CMC)): 96 % of control and 106 % of control
- T/C (dose: 200.0 mg/kg/injection, schedule: Q04DX003 (ip), vehicle: carboxymethylcellulose (CMC)): 101 % of control

SMILES: Cc1cc2nc3c(=O)[nH]c(=O)nc-3n(CCN(CCCl)CCCl)c2cc1C
- T/C (dose: 42.0 mg/kg/injection, schedule: Q01DX015 (ip), vehicle: carboxymethylcellulose (CMC)): 115 % of control
- T/C (dose: 72.0 mg/kg/injection, schedule: Q01DX015 (ip), vehicle: carboxymethylcellulose (CMC)): 96 % of control
- T/C (dose: 120.0 mg/kg/injection, schedule: Q01DX015 (ip), vehicle: carboxymethylcellulose (CMC)): 86 % of control
- T/C [13]: 152 % of control
- T/C (dose: 600.0 mg/kg/injection, schedule: Q01DX001 (ip), vehicle: carboxymethylcellulose (CMC)): 103 % of control

SMILES: CCOC(=O)CCc1c(C(=O)OCC)[nH]c(C)c1C(=O)OCc1ccccc1
- T/C (dose: 100.0 mg/kg/injection, schedule: Q04DX003 (ip), vehicle: Klucel (hydroxypropylcellulose) (HPC)): 100 % of control
- T/C (dose: 200.0 mg/kg/injection, schedule: Q04DX003 (ip), vehicle: Klucel (hydroxypropylcellulose) (HPC)): 101 % of control
- T/C (dose: 400.0 mg/kg/injection, schedule: Q04DX003 (ip), vehicle: Klucel (hydroxypropylcellulose) (HPC)): 108 % of control

SMILES: O=C(OCC1OC(n2ccc(=S)[nH]c2=O)C(OC(=O)c2ccccc2)C1OC(=O)c1ccccc1)c1ccccc1 (stereo unspecified)
- T/C (dose: 50.0 mg/kg/injection, schedule: Q01DX001 (ip), vehicle: saline): 98 % of control
- T/C [20]: 95 % of control
- T/C [21]: 101 % of control
- T/C [22]: 104 % of control

SMILES: Cc1cnc2c(N)nc(N)nc2n1
- T/C (dose: 100.0 mg/kg/injection, schedule: Q04DX002 (ip), vehicle: Klucel (hydroxypropylcellulose) (HPC)): 110 % of control
- T/C (dose: 200.0 mg/kg/injection, schedule: Q04DX002 (ip), vehicle: Klucel (hydroxypropylcellulose) (HPC)): 98 % of control
- T/C (dose: 400.0 mg/kg/injection, schedule: Q04DX002 (ip), vehicle: Klucel (hydroxypropylcellulose) (HPC)): 94 % of control

SMILES: NC(=O)c1[nH]cnc1/N=N/N1CCCC1
- T/C (dose: 125.0 mg/kg/injection, schedule: Q01DX Z (ip), vehicle: carboxymethylcellulose (CMC)): 103 % of control
- T/C (dose: 375.0 mg/kg/injection, schedule: Q01DX Z (ip), vehicle: carboxymethylcellulose (CMC)): 105 % of control

SMILES: CCCCC(C)C(C#N)(NC(C)=O)C(=O)OCC (stereo unspecified)
- T/C (dose: 75.0 mg/kg/injection, schedule: Q04DX003 (ip), vehicle: saline): 109 % of control
- T/C (dose: 150.0 mg/kg/injection, schedule: Q04DX003 (ip), vehicle: saline): 98 % of control
- T/C (dose: 300.0 mg/kg/injection, schedule: Q04DX003 (ip), vehicle: saline): 91 % of control

SMILES: CCOC(=O)C(=O)Nc1ccccc1-c1ccccc1
- T/C [15]: 102 % of control
- T/C [23]: 98 % of control
- T/C [24]: 101 % of control

SMILES: CC(O)C#CC(C)O (stereo unspecified)
- T/C (dose: 12.5 mg/kg/injection, schedule: Q01DX009 (ip), vehicle: Klucel (hydroxypropylcellulose) (HPC)): 89 % of control
- T/C [1]: 92 % of control
- T/C [2]: 102 % of control
- T/C [3]: 96 % of control
- T/C [4]: 103 % of control
- T/C (dose: 50.0 mg/kg/injection, schedule: Q04DX003 (ip), vehicle: Klucel (hydroxypropylcellulose) (HPC)): 103 % of control

SMILES: CC(=O)Nc1cc(Cl)c(Cl)cc1N
- T/C [6]: 95 % of control
- T/C [18]: 98 % of control
- T/C [19]: 96 % of control

SMILES: C[Si](C)(C)O[Si](C)(C)c1ccccc1
- T/C [14]: 102 % of control
- T/C (dose: 100.0 mg/kg/injection, schedule: Q01DX009 (ip), vehicle: saline): 88 % of control
- T/C [15]: 103 % of control
- T/C (dose: 200.0 mg/kg/injection, schedule: Q01DX009 (ip), vehicle: saline): 99 % of control
- T/C [23]: 109 % of control
- T/C (dose: 400.0 mg/kg/injection, schedule: Q01DX009 (ip), vehicle: saline): 96 % of control
- T/C [24]: 95 % of control

SMILES: CCOc1ccc2ccccc2c1
- T/C [20]: 102 % of control
- T/C [21]: 98 % of control
- T/C [22]: 102 % of control

SMILES: Cc1cc[n+](CCCCCCCCCCO)cc1C
- T/C (dose: 87.5 mg/kg/injection, schedule: Q01DX001 (ip), vehicle: saline): 97 % of control

SMILES: Cc1ccccc1NC(=O)CC#N
- T/C [16]: 90 % of control
- T/C [17]: 101 % of control
- T/C (dose: 400.0 mg/kg/injection, schedule: Q04DX002 (ip), vehicle: saline with Tween-80): 94 % of control
